Series [1] has as its target T1, mitochondrial F1F0-ATPase (Bos taurus, UniProt P13621+P32876). The series is described as follows: biochemical. More on the design: species or system bovine. Particulars: for Ki: synthesis.
Series [2] deals with Ramos cells. In words: early O2− (ROS) response, 1 h. The format is cell-based, human. Conditions: Homo sapiens, Ramos, 1 h, read-out: ROS EC50 (μM), Ramos cells. The protocol: (§1) To detect O2^−, cells are incubated with DHE (10 μM) for 30 min at 37° C. and are analyzed by flow cytometry to measure ethidium fluorescence. Flow analysis of mitochondrial transmembrane potential (ψm) is conducted by labeling cells with DiOC6(3) (20 nM) for 15 min at 37 degrees C. A positive control for disruption of ψm is established using carbonyl cyanide m-chlorophenylhydrazone (CCCP, 50 μM). Caspase activation assays are performed with FAM-VAD-fluoromethylketone. Processing of the substrate is evaluated by flow cytometry.
(§2) Since an early mitochondrial superoxide (O2^−) mediates apoptosis induced by Bz-423, the O2^− response of cells 1 h following incubation with drug was examined, as well as cell death at 24 h, as previously described (see, e.g., Blatt, N. B., et al., 2002 J Clin Invest 110, 1123-1132; incorporated herein by reference in its entirety).

A further series addresses F1F0-ATPase (Homo sapiens, UniProt P05496+P48047). The series is described as follows: inhibition of the F1F0-ATPase (potencies stated in the description). The series is classed as biochemical.
Series [3] concerns the target peripheral benzodiazepine receptor (“PBR”) (Homo sapiens, UniProt P30536). In words: binding to the peripheral benzodiazepine receptor.
Series [4] deals with migration inhibitory factor (MIF). The series is described as follows: gene expression profiling of Ramos cells (Affymetrix U133A). The series is classed as cell-based, human. The protocol:
In vitro testing with Ramos cells to determine the changes in gene expression (at the level of mRNA) induced by Bz-423 was performed by culturing cells at a density of 500,000 cells per ml. Solvent control (DMSO, final concentration 0.1% V/V]), Bz-423, or Bz-OMe (10 μM) was added to cells. After 4 h, cells were harvested and RNA prepared using Trizol Reagent (#15596-018, Life Technologies, Rockville, Md.) and the RNeasy Maxi Kit (# 75162, Qiagen, Valencia, Calif.) according to manufacturers protocols. Single stranded cDNA was synthesized by reverse transcription using poly (A) RNA present in the starting total RNA sample. Single stranded cDNA was converted into double stranded cDNA and then in vitro transcription carried out in the presence of biotinylated UTP and CTP to produce biotin-labeled cRNA. cRNA was fragmented in the presence of Mg2+, and hybridized to the human genome U133A Genechip array (Affymetrix). Hybridization results were quantified using a GeneArray scanner and analysis carried out according to the instructions provided by Affymetrix. […]
The data were analyzed to detect genes changes Bz treatment according to the criteria that the log-transformed mean signal changed at least four-fold in treated compared to vehicle control samples and that the coefficient of variance for control values (n=4) was less than 10%. […]

Another series addresses T2, human OSCP (Homo sapiens, UniProt P48047).
T2 construct: made in house; host or cells: E. coli
The series is described as follows: OSCP binding by quenching of intrinsic protein fluorescence. An excerpt:
To determine if Bz-423 indeed binds to the OSCP and the affinity of the interaction, human OSCP was overexpressed in E. coli. […] Bz-423 is the only known inhibitor of the ATPase that functions through binding to the OSCP.

The subject of series [5] is Jurkat cells. In words: cell death at 24 h. Particulars: Homo sapiens, Jurkat, 24 h, read-out: Cell death EC50 (μM), Jurkat cells. The series is classed as cell-based. The protocol: as §2
The next series has as its system B cells. In words: collapse of ΔΨm detected with DiOC6(3). The series is classed as cell-based. Conditions: by 5 hours. How it is done: as §1
To characterize the death mechanism engaged by Bz-423, intracellular ROS, ΔΨm, cytochrome c release, caspase activation, and DNA fragmentation were measured over time (the results presented are for B cells but do characterize the response in many different cell types). The first event detected after exposure to Bz-423 is an increase in the fraction of cells that stain with dihyroethedium (DHE), a redox-sensitive agent that reacts specifically with O2^−.
Collapse of ΔΨm was detected using DiOC6(3), a mitochondria-selective potentiometric probe.

Series [6] concerns Ramos cells. In words: cell culture cytotoxicity assays. Particulars: 10% FBS. The series is classed as cell-based, human. How it is done:
Like most 1,4-benzodiazepines, Bz-423 binds strongly to bovine serum albumin (BSA), which reduces the effective concentration of drug free in solution. For example, in tissue culture media containing 10% (v/v) fetal bovine serum (FBS), ca. 99% of the drug is bound to BSA. Therefore, cell culture cytotoxicity assays are conducted in media with 2% FBS to reduce binding to BSA and increase the free [Bz-423]. Under these conditions, the dose response-curve is quite sharp such that there is a limited concentration range at which Bz-423 is only partly effective. Since some benzodiazepines are known to have anti-proliferative properties, the effect of Bz-423 at concentrations <ED50 were carefully analyzed and observed that in addition to inducing apoptosis, Bz-423 prevented cell growth after 3 d in culture. In these low serum conditions, the cytotoxic and anti-proliferative effects overlapped making it difficult to study each effect independently. […] While higher amounts of drug may also block proliferation, it caused apoptosis well before the effects on proliferation could be observed.
To confirm the decrease in cell number relative to control cells after 3 d of treatment is due to decreased proliferation and not cell death balanced by proliferation, in addition to cell counting, cell divisions were studied. PKH-67 is a fluorescent probe that binds irreversibly to cell membranes and upon cell division is partitioned equally between the daughter cells, making it possible to quantify cell division by flow cytometry. Ramos cells stained with PKH67 and treated with Bz-423 had fewer cell divisions at sub-cytotoxic concentrations which confirmed that the decrease in cell number was due to anti-proliferative affects and not cell death. To determine if Bz-423 induced anti-proliferation was specific to Ramos cells, cell counting and cell cycle experiments were done in other B cell lines and cell lines derived from solid tumors.

The subject of series [7] is Jurkat cells. In words: early O2− (ROS) response, 1 h. The series is classed as cell-based. Conditions: Homo sapiens, Jurkat, 1 h, read-out: ROS EC50 (μM), Jurkat cells. How it is done:
as §1, §2

For series [8], the target named is T1, mitochondrial F1F0-ATPase. In words: biochemical. Conditions: for EC50: bovine SMPs. More on the design: species or system bovine.

Read-outs that look alike come from different tables or passages of the source. Where only a bound is given, the exact number is not on record here.

Results on 1 compound are retold here after patent US20090275099A1 (priority 2004, published 2009).

T2 sequence (P48047 24-213): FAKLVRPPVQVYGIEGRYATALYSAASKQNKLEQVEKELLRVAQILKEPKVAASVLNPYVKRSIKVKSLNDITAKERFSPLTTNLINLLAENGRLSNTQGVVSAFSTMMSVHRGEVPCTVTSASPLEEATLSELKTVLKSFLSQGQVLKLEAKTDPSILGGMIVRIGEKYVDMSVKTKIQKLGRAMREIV
Chain of peripheral benzodiazepine receptor (“PBR”) (P30536 whole entry, species assumed): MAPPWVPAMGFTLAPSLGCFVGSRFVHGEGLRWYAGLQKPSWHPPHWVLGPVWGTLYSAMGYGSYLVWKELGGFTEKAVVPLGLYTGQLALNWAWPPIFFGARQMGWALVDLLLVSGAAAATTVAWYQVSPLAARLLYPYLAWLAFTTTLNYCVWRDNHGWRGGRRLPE

For `CN1C(=O)C(Cc2ccc3ccccc3c2)N=C(c2ccc(O)cc2)c2cc(Cl)ccc21` (stereo not drawn) [Bz-423], the 50% effective concentration (EC50) in [1] (ATPase activity EC50 (μM), Synthesis, bovine SMPs) is 5.5 µM; with Ramos cells [2], 7.3 µM; in the series with Jurkat cells [5] it was 6 µM; with Jurkat cells [7] it was 10 µM; in [8] (ATPase activity EC50 (μM), Hydrolysis), 8.9 µM; in series [8] (ED 50, inhibition of mitochondrial ATPase activity) it was roughly 5 µM. Also, the inhibitory constant (Ki) in series [1] (Ki (E), three-dimensional fit, Bz-423) is 6.9 ± 0.3 µM; in series [1] (Ki (ES), three-dimensional fit, Bz-423), 10 ± 1 µM; in series [1] (competitive inhibition constant (Ki(E)), fit of dependence of Vmax/Km on Bz-423 concentration), 7.2 ± 0.3 µM; in series [1] (uncompetitive inhibition constant (Ki(ES)), fit of dependence of Vmax on Bz-423 concentration), 11 ± 2 µM; at F1F0-ATPase, roughly 9 µM; in [8], 11 ± 0.4 µM. Further, the figures for the dissociation constant Kd (in [3]; at human OSCP) were roughly 1 µM and 0.2 ± 0.04 µM, respectively. Also, the “induction of MIF” value in series [4] is “approximately 10 fold”. In the series with B cells, the “cells with collapse of ΔΨm” value was greater than 90%. In the series on Ramos cells [6], the “amounts of drug with minimal cytotoxicity” value lay within 10 to 15 µM. For the same compound, the “concentrations at which only apoptosis was observed” value in the series on Ramos cells [6] is greater than 20 µM.

The term EC50 denotes the concentration needed to bring the measured effect to its halfway point. Usually Ki stands for a dissociation constant, usually derived from enzyme kinetics or from competition with a known ligand. A low value points to a stronger hold on the target. A word on the Kd: it is the free concentration of one partner at which half of the binding sites on the other are occupied at equilibrium, for simple one-to-one binding.
